This assay relates to AKT phosphorylation at T308 in PC-3 cells. Description: Phospho-AKT (T308) ELISA in PC3 cells. In kind it is cell-based. The conditions noted are these: Homo sapiens, 6 hours compound treatment, in at least one experimental run, read-out: IC50 for inhibition of AKT phosphorylation at T308 in PC-3 cells. As to the method: Phospho-AKT (S473, T308, Total AKT) and phospho-RSK ELISA
PC3 cells (ATCC, Manassas, Va.) were plated in 96-well flat bottom plates (Corning, Lowell, Mass.) at a density of 15,000 cells/well in RPMI 1640 medium supplemented with 10% FBS. Cells were incubated at 37° C., 5% CO2 for 18-20 h. Compounds (dissolved in 100% DMSO) were diluted in an 11-point 3-fold dilution in DMSO. Compound dilution stocks were further diluted in RPMI 1640 with 10% FBS and added to each cell well. DMSO without compound was used in control wells. Final concentration of DMSO in each well was 0.15%. After 6 hours at 37° C. cells were washed with cold PBS (without calcium or magnesium) and lysed in lysis buffer (Meso Scale Discovery, Gaithersburg, Md.) supplemented with 1 protease inhibitor tablet/10 ml (Roche, Indianapolis, Ind.), 10 mM NaF, and 200 μl/10 ml Sigma phosphatase inhibitor 1 & 2 (Sigma Aldrich, St Louis, Mo.) for 30 min at 4° C. All washes were performed on a Bio Tek ELx405 plate washer (Bio Tek Instruments, Winooski, Vt.).
ELISA plates (Meso Scale Discovery; AKT Duplex, cat. N41100B-1; phospho AKT, cat. N411CAB-1; RSK, cat. N41ZB-1) were prepared by the addition of blocking buffer (3% Blocker A diluted in wash buffer (Meso Scale Discovery) for AKT duplex assay and phospho AKT assays; 5% Blocker A/1% Blocker B in Tris-buffered saline for RSK) for 1 hour and washed with wash buffer. Lysates were transferred to assay wells and incubated overnight at 4° C. Following washing with wash buffer, detection buffer (1% Blocker A in wash buffer for AKT duplex and phospho AKT or 1% Blocker A in TBS for RSK) with appropriate antibodies was added. Detection of AKT duplex and phospho AKT was carried out using a sulfo-tagged detection antibodies (Meso Scale Discovery). Detection of phospho-RSK was carried out sequentially with anti phospho-RSK1 (S221)/RSK2 (S227) (R&D systems, Minneapolis, Minn., cat. AF892) and goat anti-rabbit sulfo-tag antibody (cat R32AB-1; Meso Scale Discovery). Plates were incubated for 1 hour at room temperature and washed with wash buffer. Plates were read on a SECTOR™ Imager 6000 (Meso Scale Discovery) using Workbench software (Meso Scale Discovery) following addition of read buffer (Meso Scale Discovery) to each well. For analysis, phospho-AKT (S473) signals were normalized to total AKT, while phospho-AKT (T308) and phospho-RSK signals were analyzed without normalization. All values were expressed as percent of the DMSO-treated controls. IC50s were determined from inhibition curves using XLfit4 software (IDBS, Guildford, UK).

Experimental findings from patent US8697685B2, “Chemical compounds” (GlaxoSmithKline LLC, priority 2008, dated 2014) are described below.

A value given as a limit tells only on which side of the number the result lay.

As to `C[C@@H]1CO[C@H](C(=O)Nc2ccccc2)CN1c1cc(-c2ccc3c(N)n[nH]c3c2)nc(N)n1` [Example 67, (2S,5R)-4-[2-Amino-6-(3-amino-1H-indazol-6-yl)-4-pyrimidinyl]-5-methyl-N-phenyl-2-morpholinecarboxamide], the IC50 – broadly, the concentration that inhibits the measured activity by half – was less than 1000 nM.

As for `CNc1nc(-c2ccc3cn[nH]c3c2)cc(N2C[C@@H](C(=O)NCc3ccccc3)CC[C@H]2C)n1` [Example 81, (3S,6R)-1-[6-(1H-Indazol-6-yl)-2-(methylamino)-4-pyrimidinyl]-6-methyl-N-(phenylmethyl)-3-piperidinecarboxamide], the IC50 was less than 1000 nM.

As to `CNc1nc(-c2ccc3c(N)n[nH]c3c2)cc(N2CC(C(=O)NC3CCCCC3)CCC2C(F)(F)F)n1` (stereo not drawn) [Example 49, Cis-1-[6-(3-Amino-1H-indazol-6-yl)-2-(methylamino)-4-pyrimidinyl]-N-cyclohexyl-6-(trifluoromethyl)-3-piperidinecarboxamide], the 50% inhibitory concentration (IC50) was less than 1000 nM.

As for `CNc1nc(-c2cc(F)c3c(N)n[nH]c3c2)cc(N2C[C@@H](C(=O)NCc3ccccc3)CC[C@H]2C)n1` [Example 86, (3S,6R)-1-[6-(3-Amino-4-fluoro-1H-indazol-6-yl)-2-(methylamino)-4-pyrimidinyl]-6-methyl-N-(phenylmethyl)-3-piperidinecarboxamide], the IC50 was less than 1000 nM.

Turning to `CC[C@@H]1CO[C@H](C(=O)NCc2ccccc2)CN1c1cc(-c2ccc3c(N)n[nH]c3c2)nc(NC)n1` [Example 176, (2S,5R)-4-[6-(3-Amino-1H-indazol-6-yl)-2-(methylamino)-4-pyrimidinyl]-5-ethyl-N-(phenylmethyl)-2-morpholinecarboxamide], the IC50 was less than 1000 nM.

Turning to `CNc1nc(-c2ccc3c(N)n[nH]c3c2)cc(N2C[C@@H](C(=O)Nc3ccccc3)CC[C@H]2C)n1` [Example 77, (3S,6R)-1-[6-(3-amino-1H-indazol-6-yl)-2-(methylamino)-4-pyrimidinyl]-6-methyl-N-phenyl-3-piperidinecarboxamide], the IC50 was less than 1000 nM.

As to `C[C@@H]1CC[C@H](C(=O)NC2CCCCC2)CN1c1cc(-c2ccc3c(N)n[nH]c3c2)nc(N)n1` [Example 121, (3S,6R)-1-[2-Amino-6-(3-amino-1H-indazol-6-yl)-4-pyrimidinyl]-N-cyclohexyl-6-methyl-3-piperidinecarboxamide], the half-inhibitory concentration (IC50) is less than 1000 nM.

As to `CC1CCC(NC(=O)[C@H]2CC[C@@H](C)N(c3cc(-c4ccc5c(N)n[nH]c5c4)nc(N)n3)C2)CC1` (stereo partly drawn) [Example 150, (3S,6R)-1-[2-Amino-6-(3-amino-1H-indazol-6-yl)-4-pyrimidinyl]-6-methyl-N-(4-methylcyclohexyl)-3-piperidinecarboxamide], the IC50 was less than 1000 nM.

As for `C[C@@H]1C[C@@H](NC(=O)OC(C)(C)C)CN(c2cc(-c3ccc4c(N)n[nH]c4c3)nc(N)n2)C1` [Example 212, 1,1-Dimethylethyl{(3R,5R)-1-[2-amino-6-(3-amino-1H-indazol-6-yl)-4-pyrimidinyl]-5-methyl-3-piperidinyl}carbamate], the IC50 was less than 1000 nM.

Regarding `CNc1nc(-c2ccc3c(N)n[nH]c3c2)cc(N2C[C@@H](C(=O)NC3CCCCC3)CC[C@H]2C)n1` [Example 78, (3S,6R)-1-[6-(3-Amino-1H-indazol-6-yl)-2-(methylamino)-4-pyrimidinyl]-N-cyclohexyl-6-methyl-3-piperidinecarboxamide], the IC50 is less than 1000 nM.
